ChEMBL document CHEMBL3822430, “Discovery of pyrido[3,4-g]quinazoline derivatives as CMGC family protein kinase inhibitors: Design, synthesis, inhibitory potency and X-ray co-crystal structure” (Eur J Med Chem, 2016)

Legend:
[1] = Inhibition of porcine brain CK1 delta/epsilon using CK-S as substrate incubated for 30 mins in presence of [gamma-33 ATP] by liquid scintillation counting analysis; design: species or system Sus scrofa
[2] = target: Dual specificity protein kinase CLK1 (Homo sapiens, UniProt P49759); assay: Inhibition of GST-tagged human recombinant CLK1 expressed in Escherichia coli using RS peptide as substrate
Dual specificity protein kinase CLK1, sequence (P49759 whole entry): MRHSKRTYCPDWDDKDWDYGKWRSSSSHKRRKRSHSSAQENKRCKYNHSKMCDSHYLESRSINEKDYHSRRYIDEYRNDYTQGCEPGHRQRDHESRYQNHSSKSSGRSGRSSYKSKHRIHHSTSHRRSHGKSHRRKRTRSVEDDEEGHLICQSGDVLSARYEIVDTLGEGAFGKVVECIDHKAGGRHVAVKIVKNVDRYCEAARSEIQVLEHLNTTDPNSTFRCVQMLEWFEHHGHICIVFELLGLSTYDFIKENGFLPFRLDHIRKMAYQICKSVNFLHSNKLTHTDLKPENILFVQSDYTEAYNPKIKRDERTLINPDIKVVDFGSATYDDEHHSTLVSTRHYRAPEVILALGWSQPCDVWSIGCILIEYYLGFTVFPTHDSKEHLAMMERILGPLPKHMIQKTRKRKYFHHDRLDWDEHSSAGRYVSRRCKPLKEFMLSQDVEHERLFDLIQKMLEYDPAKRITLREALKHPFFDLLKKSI

[3] = target: Dual specificity tyrosine-phosphorylation-regulated kinase 1A (Rattus norvegicus, UniProt Q63470); assay: Inhibition of GST-tagged rat recombinant DYRK1A expressed in Escherichia coli using myelin basic protein as substrate incubated for 30 mins in presence of [gamma-33 ATP] by liquid scintillation counting analysis
[4] = target: Cyclin-dependent kinase 5/CDK5 activator 1 (Homo sapiens, UniProt Q00535); assay: Inhibition of GST-tagged human recombinant CDK5/p25 expressed in Escherichia coli using histone H1 as substrate incubated for 30 mins in presence of [gamma-33 ATP] by liquid scintillation counting analysis
Cyclin-dependent kinase 5/CDK5 activator 1, sequence (Q00535 whole entry): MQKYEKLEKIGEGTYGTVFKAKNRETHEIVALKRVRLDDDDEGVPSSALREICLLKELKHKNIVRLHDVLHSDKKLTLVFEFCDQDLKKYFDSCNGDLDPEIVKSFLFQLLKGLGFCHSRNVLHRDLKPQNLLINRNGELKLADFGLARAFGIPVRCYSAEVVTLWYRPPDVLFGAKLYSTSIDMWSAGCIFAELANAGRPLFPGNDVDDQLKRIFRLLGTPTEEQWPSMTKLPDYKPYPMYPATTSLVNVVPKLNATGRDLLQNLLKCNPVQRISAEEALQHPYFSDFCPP
Cyclin-dependent kinase 5/CDK5 activator 1, sequence (Q15078 whole entry, further chain): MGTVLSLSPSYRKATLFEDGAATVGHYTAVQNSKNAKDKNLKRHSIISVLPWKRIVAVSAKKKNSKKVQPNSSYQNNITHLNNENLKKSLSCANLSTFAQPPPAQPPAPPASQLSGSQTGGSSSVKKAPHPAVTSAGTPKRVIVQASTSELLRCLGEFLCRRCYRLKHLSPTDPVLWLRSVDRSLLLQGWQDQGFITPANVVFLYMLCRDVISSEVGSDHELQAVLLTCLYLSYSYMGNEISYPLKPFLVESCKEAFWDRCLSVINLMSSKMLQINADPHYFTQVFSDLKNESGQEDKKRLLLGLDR

[5] = target: Glycogen synthase kinase-3 (Sus scrofa, UniProt B2LUN4+I6LNT8); assay: Inhibition of porcine brain GSK3alpha/beta using GS-1 as substrate incubated for 10 mins in presence of [gamma-32 ATP] by liquid scintillation counting analysis

IC50 [1] [µM] | IC50 [2] [µM] | IC50 [3] [µM] | IC50 [4] [µM] | IC50 [5] [µM] | SMILES
5.8 | 0.041 | 0.028 | 4.8 | 9.1 | Nc1ncc2cc3cnccc3c(N)c2n1
0.8 | 0.19 | 0.18 | > 10 | > 10 | Nc1ncc2cc3cnccc3cc2n1
0.78 | 0.069 | 0.62 | > 10 | 2.2 | Nc1ncc2cc3cnccc3c([N+](=O)[O-])c2n1
